Assay results taken from US20080227131A1, “Signalling Assay and Cell Line” (GE HEALTHCARE UK LIMITED, priority 2005, published 2008).

Tests used:
[1] = tested on: EGFP-MAPK14 fusion protein; assay: EGFP-MAPK14 fusion protein translocation assay for activation of MAPK14 (N:C ratio) in stable SW1353 cells; type: cell-based, human
Procedure: During assay preparation and throughout the assay, background stress response was kept to a minimum; microplates, cells and solutions were maintained at 37° C., 5% CO2, and 95% relative humidity. All inhibitors and activators were added to cells in complete medium.
50 μl of the prepared test activator in complete medium and control compounds were added and incubated at 37° C., 5% CO2, and 95% relative humidity. For fixed cell assays, 150 μl 10% (v/v) formalin (4% formaldehyde) was added at room temperature for 20 min. Cells were washed twice with PBS and nuclei were stained with Hoechst (10 μM) in PBS prior to imaging.

[2] = tested on: phospho-(Thr180/Tyr182)-p38(MAPK14); assay: Anti-phospho-p38 immunofluorescence assay in SW1353 cells; type: cell-based, human; conditions: 30 min treatment, fixed; n=8; read-out: EC50, immunofluorescence assay (Alexa647-anti-phospho-p38 signal)
Procedure: The temporal and biological response of the EGFP-MAPK14 assay was validated through co-analysis with a recognised assay for p38 (MAPK14) activation—an immunofluorescence assay targeting phospho-(Thr180/Tyr182)-p38(MAPK14). […] Cells were then washed (1% goat serum, 0.1% Tween in PBS), permeabilized (0.5% Triton X in wash buffer) for 15 minutes at room temperature and washed again. 50 μl of rabbit anti-phospho-p38 antibody at 1:200 (Zymed Laboratories, San Francisco, USA) was added and incubated for 1 hr at room temperature prior to two washes and the addition of 50 μl of goat-anti rabbit Alexa647 antibody (Molecular Probes) at 1:200 and incubation for 1 hr at room temperature. After 2 washes, cells were imaged in PBS to detect Hoechst, EGFP-MAPK14 and Alexa647 on an IN Cell Analyzer 1000 instrument.

Compound: OC[C@@H](O)[C@@H](O)[C@H](O)[C@@H](O)CO [sorbitol]
- Duration of stimulation after initial exposure ([1]; live cells, 0.4 M): at least 90 minutes
- Nuclear accumulation of EGFP-MAPK14 fusion protein ([1]; live cells, 0.4 M for 15 mins): clearly demonstrate nuclear accumulation

Compound: COc1ccc(C[C@H]2NC[C@H](O)[C@H]2OC(C)=O)cc1 [anisomycin]
- Nuclear accumulation of EGFP-MAPK14 fusion protein ([1]; live cells, 300 nM for 15 mins): clearly demonstrate significant nuclear accumulation

Compound: IL-1β
- EC50 [2]: 7.82 pM
- EC80 ([1]; concentration used as activator in the inhibitor assay): 12 pM
- Translocation of EGFP-MAPK14 signal from cytoplasm to nucleus ([1]; fixed cell assay, 316 pM for 30 minutes (FIG. 19)): clear translocation
- Translocation of EGFP-MAPK14 signal from cytoplasm to nucleus ([1]; living cells, 12 pM): clear translocation
